# Reference: US20070254914A1, “Low-concentration atropine solution for preventing myopia progression and preparing method thereof” (Non-Profit Organization Chang Gung Memorial Hospital, priority 2006, published 2007)
# Where a name gives a salt, the structure may show the parent alone. Read-outs that look alike come from different tables or passages of the source.
# Columns and labels:
# [1] = tested on: mydriasis phenomenon; assay: durations of mydriasis phenomenon in administration of different ingredients for preventing myopia progression; format: in vivo, human
# [2] = tested on: patients (accommodation capability of eyes); assay: influences on accommodation capability with administration of different atropine concentrations; format: in vivo, human
# Method: Moreover, the myopia exacerbation also substantially relates to visual distance during near working that the patient continuously overuses high accommodation capability of eyes.
# With regard to Table 4, 21 patients were treated with 0.05% (w/w) atropine solution in a first treatment group, 9 patients were treated with 0.1% (w/w) atropine solution in a second treatment group and 6 patients were treated with blank solution in the control group. Male-female ratios in the treatment groups and the control group were respectively […] in the first treatment group, 5:4 in the second treatment group and 3:3 in the control group.
# Wherein, average ages were respectively 9.4±1.7 years old in the first treatment group, 11±1.7 years old in the second treatment group and 10±2 years old in the control group.
# Treating periods of the treatment groups in average were respectively 22.43±12.9 months in the first treatment group and 25.88±12.47 months in the second treatment group.
# Observation timing after applying the atropine solutions were respectively 16.37±2.53 hours in the first treatment group and 17.11±1.9 hours in the second treatment group.
# [3] = tested on: patients (pupil diameter); assay: mydriasis phenomenon (pupil diameter) after administration of different atropine concentrations; format: in vivo, human
# [4] = tested on: patients (myopia progression); assay: study of the present invention in 2006: myopia progression in patients treated with 0.05% atropine solution; format: in vivo, human; conditions: for Increased diopter (D) per year: 0.05% (w/w) atropine solution
# Description: With regard to Table 2, 21 patients (42 eyes) were subject in the treatment group and 36 patients were subject in the control group. All patients are residents in southern Taiwan. Male-female ratios in the treatment group and the control group were respectively 12:9 and 18:18.
# Wherein, an average age in the treatment group was 8.38±1.47 years old (range from 6 to 12 years old) and an average age in the control group was 8.11±1.12 years old (range from 6 to 12 years old).
# Treating periods of the treatment group and the control group in average are respectively 19.95±9.04 months and 21.47±10.02.
# [5] = tested on: patients (photophobia); assay: photophobia ratios with administration of different atropine concentrations; format: in vivo, human
# Description: According to following Table 6, patients treated with 0.05% (w/w) atropine solution suffered the photophobia in a lower ratio in comparison with ones treated with 0.1% (w/w) atropine solution.
# [6] = tested on: Myopic Children; conditions: Shin's study 1999, cited from earlier work
# [7] = marketed concentrations as listed in Table 7 (Soln/Ointment 0.5%-3%)
smiles,measurement,setting,value
CN1[C@@H]2CC[C@H]1C[C@@H](OC(=O)C(CO)c1ccccc1)C2 (stereo partly shown) [Atropine sulfate],Occurring time (mydriasis),"[1]; Soln, 0.05%",45 to 120 min
same,Duration of mydriasis,"[1]; Soln, 0.05% (w/w)",0.5 to 0.75 days
same,Duration of mydriasis,[1]; [7],7 to 14 days
same,Occurring time (mydriasis),[1]; [7],45 to 120 min
CN(C)CCOC(=O)C(c1ccccc1)C1(O)CCCC1 (stereo not shown) [Cyclopentolate Hydrochloride],Duration of mydriasis,"[1]; human, in vivo",2 days
same,Occurring time (mydriasis),"[1]; human, in vivo",30 to 60 min
"CN1[C@@H]2CC[C@H]1C[C@@H](OC(=O)C(CO)c1ccccc1)C2 (stereo partly shown) [Atropine, atropine]",Duration of mydriasis,[1]; 1% (w/w) atropine solution,7 to 14 days
same,Duration of mydriasis,"[1]; Soln, 0.05% (w/w), listed as atropine",0.5 to 0.75 days
same,Accommodation capability,"[2]; 0.05% atropine solution, observed 16.37±2.53 hours after applying, treating period 22.43±12.9 months",2.45(D)
same,Accommodation capability,"[2]; 0.1% atropine solution, observed 17.11±1.9 hours after applying, treating period 25.88±12.47 months",2.22(D)
same,Pupil diameter,[3]; 0.05% atropine solution,5.52 mm
same,Pupil diameter,[3]; 0.1% atropine solution,6.10 mm
same,Increased diopter (D) per year,[4]; 1st (yearly follow-up),0.34(D/yr)
same,Increased diopter (D) per year,[4]; 2nd (yearly follow-up),0.32(D/yr)
same,Increased diopter (D) per year,[4]; 3rd (yearly follow-up),0.14(D/yr)
same,Increased diopter (D) per year,[4]; All (average),0.29(D/yr)
same,Myopia progression,"[4]; 0.05% atropine solution, 21 patients (42 eyes), 6 to 12 years old, treating period 19.95±9.04 months",0.28(diopter/yr)
same,Photophobia ratio,[5]; 0.05% atropine solution,66.67%
same,Photophobia ratio,[5]; 0.1% atropine solution,85.71%
same,Myopia progression,[6]; 0.1% atropine solution,0.47 diopter/yr
same,Myopia progression,[6]; 0.25% atropine solution,0.45 diopter/yr
same,Myopia progression,[6]; 0.5% atropine solution,0.04 diopter/yr
